Consider 1 compound from ChEMBL document CHEMBL5058649, “Data for DCP probe BAY 1816032” (2022).

Assay [1] addresses Insulin-like growth factor 1 receptor (Homo sapiens) (UniProt P08069). As to the kind of experiment: IGF1R DiscoveRx kinase panel. Conditions: Compound concentration 1.0 uM.
Assay [2] has as its target Inhibitor of nuclear factor kappa-B kinase subunit epsilon (Homo sapiens) (UniProt Q14164). As to the kind of experiment: IKK-epsilon DiscoveRx kinase panel. Particulars: Compound concentration 1.0 uM.
The target in assay [3] is Tyrosine-protein kinase ABL1 (Homo sapiens) (UniProt P00519). Description: ABL1-nonphosphorylated DiscoveRx kinase panel. Conditions: Compound concentration 1.0 uM.
Sequence of Tyrosine-protein kinase ABL1 (Homo sapiens) (P00519 whole entry): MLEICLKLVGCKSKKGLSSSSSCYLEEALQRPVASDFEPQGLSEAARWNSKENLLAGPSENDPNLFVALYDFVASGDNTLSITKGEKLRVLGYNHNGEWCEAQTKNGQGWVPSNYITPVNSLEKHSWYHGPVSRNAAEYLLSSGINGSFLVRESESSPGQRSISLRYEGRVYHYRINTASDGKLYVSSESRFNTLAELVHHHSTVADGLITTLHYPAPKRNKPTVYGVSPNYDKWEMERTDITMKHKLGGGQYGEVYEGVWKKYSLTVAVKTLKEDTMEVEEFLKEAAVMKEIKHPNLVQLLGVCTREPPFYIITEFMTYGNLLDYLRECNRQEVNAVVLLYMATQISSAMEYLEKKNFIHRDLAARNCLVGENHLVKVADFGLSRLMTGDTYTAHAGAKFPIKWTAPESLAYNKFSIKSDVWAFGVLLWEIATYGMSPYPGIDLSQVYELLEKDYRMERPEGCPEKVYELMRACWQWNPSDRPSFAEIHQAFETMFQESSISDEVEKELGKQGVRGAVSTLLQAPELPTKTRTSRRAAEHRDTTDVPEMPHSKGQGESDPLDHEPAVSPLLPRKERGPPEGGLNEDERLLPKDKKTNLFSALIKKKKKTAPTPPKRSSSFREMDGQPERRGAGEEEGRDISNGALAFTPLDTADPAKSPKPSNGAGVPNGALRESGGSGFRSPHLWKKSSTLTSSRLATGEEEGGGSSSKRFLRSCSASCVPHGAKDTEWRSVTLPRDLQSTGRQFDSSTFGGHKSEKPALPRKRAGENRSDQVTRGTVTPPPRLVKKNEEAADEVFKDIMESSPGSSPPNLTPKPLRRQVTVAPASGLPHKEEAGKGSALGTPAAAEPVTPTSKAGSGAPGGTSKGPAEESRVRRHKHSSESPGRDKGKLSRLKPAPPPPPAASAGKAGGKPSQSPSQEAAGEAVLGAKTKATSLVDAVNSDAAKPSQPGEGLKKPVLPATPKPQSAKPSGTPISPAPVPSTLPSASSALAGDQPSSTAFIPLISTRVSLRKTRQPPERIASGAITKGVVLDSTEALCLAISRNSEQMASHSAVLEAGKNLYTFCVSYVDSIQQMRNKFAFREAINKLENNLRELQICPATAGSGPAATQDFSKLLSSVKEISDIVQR
The species named for assay [4] is Homo sapiens. As to the kind of experiment: Chemokine CCR1 Eurofins-Panlabs radioligand binding assay. The arrangement: ligand concentration 0.1 nM. Conditions: Compound concentration 10.0 uM.
The target of assay [5] is Protein kinase C delta type (Homo sapiens) (UniProt Q05655). As to the kind of experiment: PRKCD DiscoveRx kinase panel. Conditions: Compound concentration 1.0 uM.
Sequence of Protein kinase C delta type (Homo sapiens) (Q05655 whole entry, looked up): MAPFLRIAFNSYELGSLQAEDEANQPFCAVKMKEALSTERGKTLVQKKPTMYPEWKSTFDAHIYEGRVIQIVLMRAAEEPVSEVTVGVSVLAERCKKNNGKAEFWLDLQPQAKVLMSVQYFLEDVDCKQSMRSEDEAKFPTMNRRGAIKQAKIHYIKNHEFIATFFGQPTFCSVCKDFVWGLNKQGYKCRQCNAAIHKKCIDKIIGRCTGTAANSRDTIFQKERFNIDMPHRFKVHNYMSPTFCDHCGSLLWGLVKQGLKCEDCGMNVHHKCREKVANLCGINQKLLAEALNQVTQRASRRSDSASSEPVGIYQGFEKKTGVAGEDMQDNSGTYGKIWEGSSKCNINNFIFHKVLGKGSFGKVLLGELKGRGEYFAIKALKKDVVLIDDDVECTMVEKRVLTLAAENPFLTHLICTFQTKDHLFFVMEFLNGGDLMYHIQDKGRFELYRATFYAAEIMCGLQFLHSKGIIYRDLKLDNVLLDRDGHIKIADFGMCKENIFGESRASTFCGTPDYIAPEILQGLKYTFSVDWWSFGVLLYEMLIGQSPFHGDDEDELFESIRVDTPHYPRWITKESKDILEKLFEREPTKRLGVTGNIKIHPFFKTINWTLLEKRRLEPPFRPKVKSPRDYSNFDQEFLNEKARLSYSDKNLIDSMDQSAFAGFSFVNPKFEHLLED
For assay [6], the target named is Serine/threonine-protein kinase MARK1 (Homo sapiens) (UniProt Q9P0L2). As to the kind of experiment: MARK1 DiscoveRx kinase panel. Conditions: Compound concentration 1.0 uM.
Sequence of Serine/threonine-protein kinase MARK1 (Homo sapiens) (Q9P0L2 whole entry, looked up): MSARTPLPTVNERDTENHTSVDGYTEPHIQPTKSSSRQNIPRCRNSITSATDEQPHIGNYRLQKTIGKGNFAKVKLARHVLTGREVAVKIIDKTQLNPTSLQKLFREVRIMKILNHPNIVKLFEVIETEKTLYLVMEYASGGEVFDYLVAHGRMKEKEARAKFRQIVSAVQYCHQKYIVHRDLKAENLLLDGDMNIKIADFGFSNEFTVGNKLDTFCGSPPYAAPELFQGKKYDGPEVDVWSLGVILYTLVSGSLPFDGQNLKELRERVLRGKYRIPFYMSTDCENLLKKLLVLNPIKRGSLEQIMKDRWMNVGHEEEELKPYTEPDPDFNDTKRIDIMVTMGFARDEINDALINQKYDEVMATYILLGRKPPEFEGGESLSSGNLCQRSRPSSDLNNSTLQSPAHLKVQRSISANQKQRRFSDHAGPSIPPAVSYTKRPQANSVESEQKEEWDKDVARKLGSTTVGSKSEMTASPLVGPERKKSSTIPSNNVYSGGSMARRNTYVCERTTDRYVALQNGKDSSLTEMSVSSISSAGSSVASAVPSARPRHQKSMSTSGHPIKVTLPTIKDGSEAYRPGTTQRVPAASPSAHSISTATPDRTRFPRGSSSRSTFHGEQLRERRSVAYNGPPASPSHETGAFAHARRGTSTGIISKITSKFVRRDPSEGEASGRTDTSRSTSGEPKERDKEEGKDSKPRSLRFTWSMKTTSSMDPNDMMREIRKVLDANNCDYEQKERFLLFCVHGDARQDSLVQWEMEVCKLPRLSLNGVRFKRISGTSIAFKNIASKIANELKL

Sequence of Inhibitor of nuclear factor kappa-B kinase subunit epsilon (Homo sapiens) (Q14164 whole entry): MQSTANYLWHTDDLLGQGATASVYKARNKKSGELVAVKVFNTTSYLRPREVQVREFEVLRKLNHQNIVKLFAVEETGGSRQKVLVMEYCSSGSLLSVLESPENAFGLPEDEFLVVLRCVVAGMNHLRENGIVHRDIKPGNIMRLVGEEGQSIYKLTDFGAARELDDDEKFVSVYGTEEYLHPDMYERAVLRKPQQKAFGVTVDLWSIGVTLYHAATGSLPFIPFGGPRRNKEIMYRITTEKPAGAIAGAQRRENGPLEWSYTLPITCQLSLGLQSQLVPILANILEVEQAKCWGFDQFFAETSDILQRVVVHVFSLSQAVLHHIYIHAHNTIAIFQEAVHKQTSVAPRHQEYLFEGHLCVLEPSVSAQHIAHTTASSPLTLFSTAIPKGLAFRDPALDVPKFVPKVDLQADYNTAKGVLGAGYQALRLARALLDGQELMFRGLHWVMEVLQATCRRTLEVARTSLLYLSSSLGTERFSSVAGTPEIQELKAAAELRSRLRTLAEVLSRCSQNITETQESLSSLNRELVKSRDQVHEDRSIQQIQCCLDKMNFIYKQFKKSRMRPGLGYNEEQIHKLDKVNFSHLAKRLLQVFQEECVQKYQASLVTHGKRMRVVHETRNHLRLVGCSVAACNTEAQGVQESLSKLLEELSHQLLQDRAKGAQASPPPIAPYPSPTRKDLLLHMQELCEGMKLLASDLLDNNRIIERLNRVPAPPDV
Sequence of Insulin-like growth factor 1 receptor (Homo sapiens) (P08069 31-736 limits assumed): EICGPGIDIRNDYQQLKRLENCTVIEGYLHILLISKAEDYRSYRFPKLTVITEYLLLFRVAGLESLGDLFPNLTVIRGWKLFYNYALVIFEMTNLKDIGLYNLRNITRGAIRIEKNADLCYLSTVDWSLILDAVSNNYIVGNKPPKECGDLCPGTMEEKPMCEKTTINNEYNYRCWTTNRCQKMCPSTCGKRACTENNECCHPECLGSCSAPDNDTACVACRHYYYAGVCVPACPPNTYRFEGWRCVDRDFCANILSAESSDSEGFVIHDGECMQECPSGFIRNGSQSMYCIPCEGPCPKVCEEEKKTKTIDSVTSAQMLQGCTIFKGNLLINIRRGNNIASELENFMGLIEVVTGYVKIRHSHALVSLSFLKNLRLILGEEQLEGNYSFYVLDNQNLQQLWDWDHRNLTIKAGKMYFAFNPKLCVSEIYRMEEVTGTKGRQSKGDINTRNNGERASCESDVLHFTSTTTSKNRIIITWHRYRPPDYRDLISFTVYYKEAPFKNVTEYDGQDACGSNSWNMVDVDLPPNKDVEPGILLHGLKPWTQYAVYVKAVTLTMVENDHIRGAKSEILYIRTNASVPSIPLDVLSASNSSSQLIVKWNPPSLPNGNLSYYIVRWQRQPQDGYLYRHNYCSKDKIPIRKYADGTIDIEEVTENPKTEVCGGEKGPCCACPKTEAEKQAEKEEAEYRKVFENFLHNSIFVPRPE
Sequence of Insulin-like growth factor 1 receptor (Homo sapiens) (P08069 741-1367 limits assumed): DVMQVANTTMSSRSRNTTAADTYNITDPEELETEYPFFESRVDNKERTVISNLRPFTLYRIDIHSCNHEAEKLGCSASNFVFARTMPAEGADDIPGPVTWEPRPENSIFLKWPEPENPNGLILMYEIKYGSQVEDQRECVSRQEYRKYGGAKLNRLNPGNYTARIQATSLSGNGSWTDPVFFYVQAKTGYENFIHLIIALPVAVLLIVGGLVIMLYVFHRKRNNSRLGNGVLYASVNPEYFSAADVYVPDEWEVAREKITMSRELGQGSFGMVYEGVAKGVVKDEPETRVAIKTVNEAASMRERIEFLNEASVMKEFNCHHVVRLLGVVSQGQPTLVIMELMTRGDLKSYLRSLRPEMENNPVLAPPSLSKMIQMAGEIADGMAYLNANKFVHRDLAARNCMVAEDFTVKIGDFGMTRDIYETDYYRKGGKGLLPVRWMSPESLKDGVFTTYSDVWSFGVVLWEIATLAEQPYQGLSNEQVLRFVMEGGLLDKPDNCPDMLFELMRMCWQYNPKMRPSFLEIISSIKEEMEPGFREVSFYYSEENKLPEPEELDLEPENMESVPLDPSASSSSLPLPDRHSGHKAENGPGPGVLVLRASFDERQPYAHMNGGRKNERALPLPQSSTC

Broadly, the residual activity is the signal under treatment as a percentage of the control signal. Usually inhibition stands for the change of the read-out against control, counted positive when it falls. As for `COc1cnccc1Nc1nc(-c2nn(Cc3c(F)cc(OCCO)cc3F)c3ccccc23)ncc1OC`, the residual activity in assay [1] was found to be 97%; in assay [2], 92%; in assay [3], 87%; in assay [5] it was 80%; in assay [6], 97%. Also, the inhibition in assay [4] was -4%.
